Patent US20240246946A1, “MODULATORS OF TREX1” (Constellation Pharmaceuticals, Inc., priority 2021, published 2024)

How the values were obtained:
[1] = biological target: T1, full length human TREX1 (Homo sapiens, UniProt Q9NSU2); assay: hTREX1 Biochemical Assay (fluorescence, dsDNA substrate degradation); conditions: biochemical, read-out: hTREX1 IC50
T1 construct: N-terminally His-Tev tagged full length human TREX1; made in house; host or cells: E. coli
T1 sequence (Q9NSU2 1-314): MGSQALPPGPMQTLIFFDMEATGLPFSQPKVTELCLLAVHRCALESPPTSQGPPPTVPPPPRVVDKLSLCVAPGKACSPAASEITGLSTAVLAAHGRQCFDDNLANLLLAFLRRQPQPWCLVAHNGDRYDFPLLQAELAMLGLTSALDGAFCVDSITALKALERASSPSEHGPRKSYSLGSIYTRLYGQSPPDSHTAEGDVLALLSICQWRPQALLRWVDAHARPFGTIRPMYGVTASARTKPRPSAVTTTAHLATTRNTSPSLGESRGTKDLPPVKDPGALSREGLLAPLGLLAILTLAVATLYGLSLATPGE
Protocol: (§1) Degradation of the dsDNA liberates free fluorophore to produce a fluorescent signal. Specifically, 7.5 μL of N-terminally His-Tev tagged full length human TREX1 (expressed in E. coli and purified in house) in reaction buffer (50 mM Tris, 150 mM NaCl, 2 mM DTT, 0.1 mg/mL BSA, 0.01% (w/v) Tween-20, 5 mM MgCl2, pH 7.4) was added to a 384-well Black ProxiPlate Plus (PerkinElmer) which already contained compound (150 nL) at varying concentrations as a 10 point dose-response in DMSO. The plate was incubated at 25° C. for 4 hours. Reactions were initiated by adding 7.5 μL of dsDNA substrate (Strand A: 5′ TEX615/GCT AGG CAG 3′; Strand B: 5′ CTG CCT AGC/IAbRQSp (Integrated DNA Technologies)) in reaction buffer. Final concentrations were 4 pM TREX1, 60 nM dsDNA substrate in reaction buffer with 1.0% DMSO (v/v). After 18 hours at 25° C., reactions were quenched by the addition of 2 μL of 500 mM EDTA.

[2] = biological target: T2, full length mouse TREX1 (Mus musculus, UniProt Q91XB0); assay: mTREX1 Biochemical Assay (fluorescence, dsDNA substrate degradation); conditions: biochemical, read-out: mTREX1 IC50
T2 construct: N-terminally His-Tev tagged full length mouse TREX1; made in house; host or cells: E. coli
T2 sequence (Q91XB0 1-314): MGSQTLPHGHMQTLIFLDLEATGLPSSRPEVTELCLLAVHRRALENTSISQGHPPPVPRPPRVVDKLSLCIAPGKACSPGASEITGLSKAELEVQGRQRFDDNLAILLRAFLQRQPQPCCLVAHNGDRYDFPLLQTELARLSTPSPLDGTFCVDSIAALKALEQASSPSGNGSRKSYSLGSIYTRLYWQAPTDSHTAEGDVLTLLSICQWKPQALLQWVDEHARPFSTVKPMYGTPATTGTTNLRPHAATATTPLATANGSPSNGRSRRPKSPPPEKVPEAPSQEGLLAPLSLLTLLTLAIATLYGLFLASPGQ
Protocol: as §1, with “length mouse” for “length human”, “were 6” for “were 4”

Row | IC50 [1] [nM] | IC50 [2] [nM] | SMILES
1 | > 10 | > 10 | CC(c1nc(C(=O)Nc2cnoc2)c(O)c(=O)n1C)C(c1ccccc1C#N)c1ccnn1C (single isomer, unassigned) [Example 1 D2E1]
2 | > 10 | > 10 | CC(c1nc(C(=O)Nc2cnoc2)c(O)c(=O)n1C)C(c1cnn(C)c1)c1ccccc1C#N (single isomer, unassigned) [Example 2 D2E1]
3 | > 10 | > 10 | Cc1nn(C)cc1C(c1ccccc1C#N)C(C)c1nc(C(=O)Nc2cnoc2)c(O)c(=O)n1C (single isomer, unassigned) [Example 3 D1E2]
4 | > 10 | > 10 | Cc1nn(C)cc1C(c1ccccc1C#N)C(C)c1nc(C(=O)Nc2cnoc2)c(O)c(=O)n1C (single isomer, unassigned) [Example 3 D2E1]
5 | > 10 | > 10 | Cc1c(C(c2ccccc2C#N)C(C)c2nc(C(=O)Nc3cnoc3)c(O)c(=O)n2C)cnn1C (single isomer, unassigned) [Example 4 D1E2]
6 | > 10 | > 10 | Cc1c(C(c2ccccc2C#N)C(C)c2nc(C(=O)Nc3cnoc3)c(O)c(=O)n2C)cnn1C (single isomer, unassigned) [Example 4 D2E1]
7 | > 10 | > 10 | Cc1ccc(C(c2ccccc2C#N)C(C)c2nc(C(=O)Nc3cnoc3)c(O)c(=O)n2C)cn1 (single isomer, unassigned) [Example 5 D1E1]
8 | > 10 | > 10 | Cc1cc(C(c2ccccc2C#N)C(C)c2nc(C(=O)Nc3cnoc3)c(O)c(=O)n2C)ccn1 (single isomer, unassigned) [Example 6 D2E1]
9 | > 10 | > 10 | CC(c1nc(C(=O)Nc2cnoc2)c(O)c(=O)n1C)C(c1cnn(C)c1)c1cccnc1C#N (single isomer, unassigned) [Example 7 D1E2]
10 | > 10 | > 10 | CC(c1nc(C(=O)Nc2cnoc2)c(O)c(=O)n1C)C(c1cnn(C)c1)c1cccnc1C#N (single isomer, unassigned) [Example 7 D2E1]
11 | > 10 | > 10 | CC(c1nc(C(=O)Nc2cnoc2)c(O)c(=O)n1C)C(c1cnn(C)c1)c1ccncc1C#N (single isomer, unassigned) [Example 8 D1E1]
12 | > 10 | > 10 | CC(c1nc(C(=O)Nc2cnoc2)c(O)c(=O)n1C)C(c1cnn(C)c1)c1ccncc1C#N (single isomer, unassigned) [Example 8 D2E1]
13 | > 10 | > 10 | COCCn1cc(C(c2ccccc2C#N)C(C)c2nc(C(=O)Nc3cnoc3)c(O)c(=O)n2C)cn1 (single isomer, unassigned) [Example 9 D1E2]
14 | > 10 | > 10 | COCCn1cc(C(c2ccccc2C#N)C(C)c2nc(C(=O)Nc3cnoc3)c(O)c(=O)n2C)cn1 (single isomer, unassigned) [Example 9 D2E2]
15 | > 10 | > 10 | CC(c1nc(C(=O)Nc2cnoc2)c(O)c(=O)n1C)C(c1ccccc1C#N)c1cn(C)nc1C#N (single isomer, unassigned) [Example 10 D2E2]
16 | > 10 | > 10 | CC(c1nc(C(=O)Nc2cnoc2)c(O)c(=O)n1C)C(c1cnn(C)c1)c1ccc(C(=O)N(C)C)cc1C#N (single isomer, unassigned) [Example 11 D2E1]
17 | > 10 | > 10 | CC(c1nc(C(=O)Nc2cnoc2)c(O)c(=O)n1C)C(c1cnn(C)c1)c1ccc(C(=O)N(C)C)cc1C#N (single isomer, unassigned) [Example 11 D2E2]
18 | > 10 | > 10 | CC(c1nc(C(=O)Nc2cnoc2)c(O)c(=O)n1C)C(c1cn[nH]c1)c1ccccc1C#N (single isomer, unassigned) [Example 12 D2E2]
19 | > 10 | > 10 | CCn1cc(C(c2ccccc2C#N)C(C)c2nc(C(=O)Nc3cnoc3)c(O)c(=O)n2C)cn1 (single isomer, unassigned) [Example 13 D2E2]

Row | IC50 [1] [nM] | IC50 [2] [nM] | SMILES
20 | > 10 | > 10 | CC(c1nc(C(=O)Nc2cnoc2)c(O)c(=O)n1C)C(c1cnn(C)c1)c1cc(F)ccc1C#N (single isomer, unassigned) [Example 14 D1E1]
21 | > 10 | > 10 | CC(c1nc(C(=O)Nc2cnoc2)c(O)c(=O)n1C)C(c1cnn(C)c1)c1cc(F)ccc1C#N (single isomer, unassigned) [Example 14 D2E2]
22 | > 10 | > 10 | CC(c1nc(C(=O)Nc2cnoc2)c(O)c(=O)n1C)C(c1cnn(C)c1)c1ccc(F)cc1C#N (single isomer, unassigned) [Example 15 D1E2]
23 | > 10 | > 10 | CC(c1nc(C(=O)Nc2cnoc2)c(O)c(=O)n1C)C(c1cnn(C)c1)c1ccc(F)cc1C#N (single isomer, unassigned) [Example 15 D2E2]
24 | > 10 | > 10 | CCn1cc(C(c2ccc(F)cc2C#N)C(C)c2nc(C(=O)Nc3cnoc3)c(O)c(=O)n2C)cn1 (single isomer, unassigned) [Example 16 D1E2]
25 | > 10 | > 10 | CCn1cc(C(c2ccc(F)cc2C#N)C(C)c2nc(C(=O)Nc3cnoc3)c(O)c(=O)n2C)cn1 (single isomer, unassigned) [Example 16 D2E1]
26 | > 10 | – | COC(C)(C)Cn1cc(C(c2ccccc2C#N)C(C)c2nc(C(=O)Nc3cnoc3)c(O)c(=O)n2C)cn1 (single isomer, unassigned) [Example 37 D2E2]
27 | < 1 | – | Cc1cnn(C(c2ccccc2C#N)C(C)c2nc(C(=O)Nc3cnoc3)c(O)c(=O)n2C)c1 (single isomer, unassigned) [Example 47 D1E1]
28 | > 10 | – | Cc1cnn(C(c2ccccc2C#N)C(C)c2nc(C(=O)Nc3cnoc3)c(O)c(=O)n2C)c1 (single isomer, unassigned) [Example 47 D1E2]
29 | > 10 | – | CCn1cc(C(c2ccc(F)cc2C#N)C(C)c2nc(C(=O)Nc3cnoc3)c(O)c(=O)n2C)c(C)n1 (single isomer, unassigned) [Example 55 D2E1]
30 | > 10 | – | Cc1ncc(C(c2ccccc2C#N)C(C)c2nc(C(=O)Nc3cnoc3)c(O)c(=O)n2C)cn1 (single isomer, unassigned) [Example 67 D1E1]
31 | > 10 | – | Cc1ncc(C(c2ccccc2C#N)C(C)c2nc(C(=O)Nc3cnoc3)c(O)c(=O)n2C)cn1 (single isomer, unassigned) [Example 67 D2E1]
32 | > 10 | – | Cc1ncc(C(c2ccccc2C#N)C(C)c2nc(C(=O)Nc3cnoc3)c(O)c(=O)n2C)cn1 (single isomer, unassigned) [Example 67 D2E2]
33 | < 1 | – | CC(c1nc(C(=O)Nc2cnoc2)c(O)c(=O)n1C)C(c1cnn(C)c1)c1ccc(F)cc1Cl (single isomer, unassigned) [Example 74 D1E1]
34 | > 10 | – | CC(c1nc(C(=O)Nc2cnoc2)c(O)c(=O)n1C)C(c1cnn(C)c1)c1ccc(F)cc1Cl (single isomer, unassigned) [Example 74 D1E2]
35 | > 10 | – | CC(c1nc(C(=O)Nc2cnoc2)c(O)c(=O)n1C)C(c1cnn(C)c1)c1ccc(F)cc1Cl (single isomer, unassigned) [Example 74 D2E1]
36 | > 10 | – | CC(c1nc(C(=O)Nc2cnoc2)c(O)c(=O)n1C)C(c1cnn(C)c1)c1ccc(F)cc1Cl (single isomer, unassigned) [Example 74 D2E2]
37 | < 1 | – | [2H]C([2H])([2H])n1cc(C(c2ccccc2C#N)C(C)c2nc(C(=O)Nc3cnoc3)c(O)c(=O)n2C)cn1 (single isomer, unassigned) [Example 76 D1E1]
